Data reported in patent US20110294726A1, “ANTIBIOTIC THERAPY TO REDUCE THE LIKELIHOOD OF DEVELOPING POST-INFECTIOUS IRRITABLE BOWEL SYNDROME” (CEDARS-SINAI MEDICAL CENTER, priority 2009, published 2011).

Assays:
[1] = test system: Shigella; conditions: humans, recent study (16); cited from earlier work
[2] = test system: C. jejuni 81-176; assay: Determination of a post-infectious phenotype (stool form, % stool weight) 3 months after C. jejuni clearance; assay type: in vivo, Male Sprague-Dawley rats
Description: Male Sprague-Dawley rats (n=108) (200g) were quarantined for 10 days. Subsequently, fresh stool was collected by stroking the anus. Stool was cultured for C. jejuni on Campylobacter agar (BD Diagnostics, Franklin Lakes, N.J.). This was conducted to confirm the absence of infection or colonization of animals with C. jejuni prior to starting the study. […] In the first group (n=54), the rats were gavaged with 1 mL of a 5% solution of bicarbonate. This was given to acutely reduce gastric acidity. Subsequently, the rats were gavaged with a 1 mL suspension of 10^8 cfu/mL C. jejuni 81-176 in Campylobacter broth (C+/R− group). In the second group (n=54), the rats were gavaged with a 1 mL solution of rifaximin (200 mg) (C+/R+ group). The following day, the C+/R+ group received 3 sequential gavages. The first was another 1 mL dose of rifaximin. One hour later, they were gavaged with a 1 mL solution of 5% bicarbonate followed by a third gavage consisting of a 1 mL suspension of 10^8 cfu/mL C. jejuni 81-176 in Campylobacter broth. The following day, the C+/R+ group received a third and final gavage of 200 mg of rifaximin. After C. jejuni clearance was determined, the rats were housed for an additional 3 months (90 days). At 90 days, fresh stool was collected for 3 consecutive days. The stool was graded for consistency. To do this, a modified Bristol-like stool score was used. In this score, stool was graded as normal (1), soft and poorly formed (2), or watery (3). The stool was then weighed and air dried for 5 days followed by oven drying at 160° C. for 1 hour. The stool was reweighed and a % stool wet weight was determined. After completion of the study, the rats were euthanized by CO2 asphyxiation, weighed, and a laparotomy was performed. During the laparotomy, predefined segments of duodenum, jejunum, ileum, left colon, and rectum were resected, as previously described (12). Subsequently, the contents of each segment were cultured for the presence of C. jejuni. At the end of 3 months, the stool form for 3 days was averaged and then the two groups were compared. In another analysis, the number of days with normal stool in 3 days was determined and compared between groups. Finally, the variance in stool form over 3 days was also determined and compared between groups. The comparison was done by Wilcoxon rank-sum test.

[3] = test system: C. jejuni 81-176; assay: Tracking the acute colonization with C. jejuni in stool of gavaged rats; assay type: in vivo, Male Sprague-Dawley rats
Description: Male Sprague-Dawley rats (n=108) (200g) were quarantined for 10 days. Subsequently, fresh stool was collected by stroking the anus. Stool was cultured for C. jejuni on Campylobacter agar (BD Diagnostics, Franklin Lakes, N.J.). This was conducted to confirm the absence of infection or colonization of animals with C. jejuni prior to starting the study. […] In the first group (n=54), the rats were gavaged with 1 mL of a 5% solution of bicarbonate. This was given to acutely reduce gastric acidity. Subsequently, the rats were gavaged with a 1 mL suspension of 10^8 cfu/mL C. jejuni 81-176 in Campylobacter broth (C+/R− group). In the second group (n=54), the rats were gavaged with a 1 mL solution of rifaximin (200 mg) (C+/R+ group). The following day, the C+/R+ group received 3 sequential gavages. The first was another 1 mL dose of rifaximin. One hour later, they were gavaged with a 1 mL solution of 5% bicarbonate followed by a third gavage consisting of a 1 mL suspension of 10^8 cfu/mL C. jejuni 81-176 in Campylobacter broth. The following day, the C+/R+ group received a third and final gavage of 200 mg of rifaximin. After completion of the gavage, fresh stool was collected daily from all rats (both groups) and cultured for the presence of C. jejuni on Campylobacter agar. The number of days to first detectable C. jejuni in stool was recorded. Once colonization was noted, daily stool was cultured until 2 consecutive days with no detectable C. jejuni was observed. This was recorded as the time to C. jejuni clearance. In the post-infectious phase, the time to initial colonization, time for clearance and total duration of shedding were determined and compared between the C+/R− and C+/R+ groups. This was compared by Wilcoxon rank-sum test.

Compound: CO[C@H]1/C=C/O[C@@]2(C)Oc3c(C)c(O)c4c(O)c(c5c(nc6cc(C)ccn65)c4c3C2=O)NC(=O)/C(C)=C\C=C\[C@H](C)[C@H](O)[C@@H](C)[C@@H](O)[C@@H](C)[C@H](OC(C)=O)[C@@H]1C [rifaximin]
- Prevention of illness by prophylaxis of a Shigella infection (in words) [1]: able to prevent illness
- Average % of stool dry weight ([2]; 3 months after clearance, 3 day average, P NS): 61.1 +/− 3.8%
- Daily variability of Dry Weight ([2]; 3 months after clearance, over 3 days, P<0.01): 4.1 +/− 2.3
- Number of bowel movements normal in form out of 3 days (FIG. 2, in words) ([2]; C+/R+ versus C+/R−, 3 months after clearance): closer to having perfectly normal bowel function
- Daily Variability of Stool Consistency ([2]; over 3 days, 3 months after clearance, P<0.01): .24 +/− 0.5
- Long term effects of C. jejuni on the bowel (in words) ([2]; rifaximin prophylaxis, stool form and % wet weight): reduced the long term effects of C. jejuni on the bowel
- Average Stool Consistency (Based on Bristol Stool Scale) ([2]; score 1 normal, 2 soft and poorly formed, 3 watery, 3 day average, 3 months after clearance, P<0.00001): 1.1 +/− 0.3
- Longest colonization ([3]; C+/R+ group): 21 days
- Rats with at least one day of detectable C. jejuni in stool (percent) ([3]; C+/R+ group of 54 rats, P=0.016 vs C+/R−): 98%
- Rats with at least one day of detectable C. jejuni in stool (number) ([3]; of 54 rats in the C+/R+ group, P=0.016 vs C+/R−): 53 rats
- Detection of C. jejuni in stool in the acute phase (in words) ([3]; rifaximin prophylaxis, rats): did not prevent C. jejuni from being detected in stool
- Time to first detectable C. jejuni ([3]; stool culture, number of days after gavage, rifaximin 200 mg gavage on 3 days around inoculation, P<0.0001 vs C+/R−): 1.3 ± 0.4
